Data: PMC5446859 (2017)

Tested on: DNAzyme-aptamer (DNA, aptamer) TGGGTAGGGCGGGTTGGGAAAGTTGGGCACGTGTTGTCTCTCTGTGTCTCGTGCCCTTCGCTAGGCCCAC
Assay: peroxidase activity (TMB), blocker hybridization
Conditions: 120 mM NaCl, 5 mM KCl, 2.5 mM MgCl2; 10 mM Tris-HCl pH 8; hemin prevents hybridization of blocker; qualitative, indirect

binding: yes
SMILES: C=CC1=C(C)C2=Cc3c(C=C)c(C)c4[n]3[Fe]([Cl])[n]3c(c(C)c(CCC(=O)O)c3=CC3=NC(=C4)C(C)=C3CCC(=O)O)=CC1=N2
